Assay results taken from publication PMC7608815 (Science Advances, 2020).

What was measured:
SlMT3 = target: T1, SlMT3 (Solanum lycopersicum, UniProt D2Y3T9); assay: yeast feeding assay, qToF-MS of methylation product; type: cell-based; conditions: 100 uM fed substrate plus endogenous yeast 3-HAA, 72 h, 30 C
T1 sequence (D2Y3T9 1-361): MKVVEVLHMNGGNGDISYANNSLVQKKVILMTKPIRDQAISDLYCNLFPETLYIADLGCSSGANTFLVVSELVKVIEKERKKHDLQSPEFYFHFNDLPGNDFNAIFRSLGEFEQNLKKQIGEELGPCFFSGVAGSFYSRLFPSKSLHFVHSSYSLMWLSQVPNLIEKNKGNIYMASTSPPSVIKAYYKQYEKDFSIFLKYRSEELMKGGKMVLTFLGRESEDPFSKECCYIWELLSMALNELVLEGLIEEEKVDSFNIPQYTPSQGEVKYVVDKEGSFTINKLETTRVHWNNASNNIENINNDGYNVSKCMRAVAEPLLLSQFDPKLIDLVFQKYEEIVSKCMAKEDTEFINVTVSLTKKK

AtCHS = target: T2, AtCHS (Arabidopsis thaliana, UniProt P13114); assay: LC-MS/MS product detection, end point […] h; type: biochemical; conditions: 200 uM p-coumaroyl-CoA, 30 C
T2 sequence (P13114 2-395): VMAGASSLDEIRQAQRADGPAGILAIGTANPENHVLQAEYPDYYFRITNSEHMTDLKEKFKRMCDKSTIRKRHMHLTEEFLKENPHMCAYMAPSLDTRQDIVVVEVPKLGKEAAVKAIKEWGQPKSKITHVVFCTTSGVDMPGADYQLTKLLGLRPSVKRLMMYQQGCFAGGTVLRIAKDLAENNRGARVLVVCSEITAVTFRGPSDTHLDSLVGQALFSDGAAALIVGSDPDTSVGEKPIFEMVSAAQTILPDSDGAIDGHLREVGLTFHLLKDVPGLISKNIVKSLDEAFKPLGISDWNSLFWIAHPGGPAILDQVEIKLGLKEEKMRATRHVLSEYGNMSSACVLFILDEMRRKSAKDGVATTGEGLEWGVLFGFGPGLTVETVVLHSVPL

Nc1c(O)cccc1C(=O)O [3-HAA]
yeast feeding assay, qToF-MS of methylation product (SlMT3): SlMT3 exhibited detectable activity only toward 3-HAA

COC(=O)c1cccc(O)c1N [compound 1, Methyl 2-amino-3-hydroxybenzoate]
LC-MS/MS product detection, end point 4 h (AtCHS; 200 uM 3-HAA methyl ester, amide synthesis): highest production of amide with 3-HAA methyl ester

CC(C)(COP(=O)(O)OP(=O)(O)OC[C@H]1O[C@@H](n2cnc3c(N)ncnc32)[C@H](O)[C@@H]1OP(=O)(O)O)[C@@H](O)C(=O)NCCC(=O)NCCSC(=O)CC(=O)O [malonyl-CoA]
LC-MS/MS product detection, end point 4 h (AtCHS; 200 uM malonyl-CoA, naringenin chalcone synthesis): its activities on malonyl-CoA and 3-HAA methyl ester were analyzed under the same assay conditions
